The record followed here is ChEMBL document CHEMBL3124787, “Discovery of novel bis-oxazolidinone compounds as potential potent and selective antitubercular agents” (Bioorg Med Chem Lett, 2014).

≈ marks a conversion by molar mass, not a printed value. A value given as a limit tells only on which side of the number the result lay.

The subject of one series is Escherichia coli. The series is described as follows: Antibacterial activity against Escherichia coli ATCC 25922 assessed as growth inhibition after 18 hrs by broth microdilution method. In kind it is functional. Particulars: ATCC 25922, 18 h. Background: Dilution methods test growth across graded concentrations, often in twofold steps.
In series [1] the test system is Staphylococcus aureus. The series is described as follows: Antibacterial activity against methicillin-susceptible Staphylococcus aureus CMCC 26003 assessed as growth inhibition after 18 hrs by broth microdilution method. In kind it is functional. Particulars: CMCC 26003, 18 h.
The nature of series [2]: Aqueous solubility of the compound by HPLC analysis. The format is physicochemical.
For series [3], the system named is Staphylococcus aureus. As to the kind of experiment: Antibacterial activity against methicillin-resistant Staphylococcus aureus ATCC 33591 assessed as growth inhibition after 18 hrs by broth microdilution method. The format is functional. Particulars: ATCC 33591, 18 h.
Series [4] concerns Staphylococcus aureus. The series is described as follows: Antibacterial activity against methicillin-susceptible Staphylococcus aureus ATCC 29213 assessed as growth inhibition after 18 hrs by broth microdilution method. In kind it is functional. Particulars: ATCC 29213, 18 h.
Series [5] concerns Staphylococcus aureus. As to the kind of experiment: Antibacterial activity against methicillin-resistant Staphylococcus aureus ATCC 43300 assessed as growth inhibition after 18 hrs by broth microdilution method. The format is functional. Particulars: ATCC 43300, 18 h.
Series [6] in a line: Lipophilicity, log P of the compound by HPLC analysis. The format is physicochemical.
Another series deals with Pseudomonas aeruginosa. The series is described as follows: Antibacterial activity against Pseudomonas aeruginosa ATCC 27853 assessed as growth inhibition after 18 hrs by broth microdilution method. The format is functional. Particulars: ATCC 27853, 18 h.
In series [7] the test system is Mycolicibacterium smegmatis. The series is described as follows: Antibacterial activity against Mycobacterium smegmatis assessed as growth inhibition after 18 hrs by broth microdilution method. The format is functional.
Series [8] has as its system Staphylococcus aureus. The series is described as follows: Antibacterial activity against methicillin-susceptible Staphylococcus aureus ATCC 25923 assessed as growth inhibition after 18 hrs by broth microdilution method. In kind it is functional. The following applies: ATCC 25923, 18 h.
Series [9] has as its system Staphylococcus aureus. As to the kind of experiment: Antibacterial activity against methicillin-susceptible Staphylococcus aureus ATCC 6538 assessed as growth inhibition after 18 hrs by broth microdilution method. Particulars: ATCC 6538, 18 h. The format is functional.
Series [10] has as its system Mycobacterium tuberculosis. As to the kind of experiment: Antitubercular activity against Mycobacterium tuberculosis H37RV ATCC 27294 assessed as growth inhibition after 3 to 11 days by microdilution method. The format is functional.

Usually MIC99 stands for the lowest concentration that inhibits either 99% of growth or 99% of the strains tested, depending on the study. By solubility is commonly meant the dissolved amount per volume that the medium holds. Lower therefore signals a poorly soluble substance. Broadly, the logP is the decadic logarithm of the partition coefficient of the neutral form, usually between octanol and water. Higher therefore signals a more lipophilic compound. For `CC(=O)NC[C@H]1CN(c2ccc(OC[C@@H](O)CNCCC(C)C)c(F)c2)C(=O)O1`, the MIC99 in the series on Escherichia coli, in the series with Staphylococcus aureus [1], in the series on Staphylococcus aureus [3], in the series with Staphylococcus aureus [4], in the series on Staphylococcus aureus [5] and in the series with Pseudomonas aeruginosa was above 32 µg/mL throughout. Also, the figures for the MIC99 (in series [7]; in the series on Staphylococcus aureus [8]; with Staphylococcus aureus [9]) were above 64 µg/mL, above 32 µg/mL and above 32 µg/mL, respectively. The compound further showed a solubility in [2] of 385 µM (≈ 158 µg/mL). Further, in series [6], the logP came to 1.17.

As to `CC(=O)NC[C@H]1CN(c2ccc(OC[C@H](O)CNc3ccncc3)c(F)c2)C(=O)O1`, the MIC99 with Escherichia coli, in the series with Staphylococcus aureus [1], with Staphylococcus aureus [3], in the series with Staphylococcus aureus [4], in the series with Staphylococcus aureus [5] and with Pseudomonas aeruginosa was above 32 µg/mL each time. The MIC99 in series [7] is above 64 µg/mL; with Staphylococcus aureus [8] it was above 32 µg/mL; in the series on Staphylococcus aureus [9], above 32 µg/mL. In addition, in series [2], the solubility came to 24600 µM (≈ 10300 µg/mL). In series [6], this compound showed a logP of 0.02.

In the case of `CC(=O)NC[C@H]1CN(c2ccc(OC[C@@H](O)CNC3CC3)c(F)c2)C(=O)O1`, the MIC99 in the series with Escherichia coli, in the series on Staphylococcus aureus [1], in the series with Staphylococcus aureus [3], in the series with Staphylococcus aureus [4], in the series on Staphylococcus aureus [5] and in the series with Pseudomonas aeruginosa was above 32 µg/mL throughout. For the same compound, the MIC99 in series [7] was 32 µg/mL (≈ 83.9 µM); with Staphylococcus aureus [8], above 32 µg/mL; in the series on Staphylococcus aureus [9], above 32 µg/mL. In addition, in series [2], the solubility was 96000 µM (≈ 36600 µg/mL). This compound came in with a logP in series [6] of 0.02.

Turning to `CC(=O)NC[C@H]1CN(c2ccc(OC[C@H](O)CNC3CC3)c(F)c2)C(=O)O1`, the MIC99 in the series on Escherichia coli, with Staphylococcus aureus [1], with Staphylococcus aureus [3], in the series on Staphylococcus aureus [4], in the series on Staphylococcus aureus [5] and with Pseudomonas aeruginosa was above 32 µg/mL throughout. In addition, the figures for the MIC99 (in series [7]; with Staphylococcus aureus [8]; with Staphylococcus aureus [9]) were above 64 µg/mL, above 32 µg/mL and above 32 µg/mL, respectively. For the same compound, the concentration in solution in series [2] (solubility) came to 2200 µM (≈ 840 µg/mL). Also, the logP in series [6] is -0.1.

On to `CC(=O)NC[C@H]1CN(c2ccc(OC[C@H](O)CNCCC(C)C)c(F)c2)C(=O)O1`, for which the MIC99 in the series on Escherichia coli, in the series with Staphylococcus aureus [1], with Staphylococcus aureus [3], in the series on Staphylococcus aureus [4], in the series on Staphylococcus aureus [5] and in the series on Pseudomonas aeruginosa was above 32 µg/mL each time. For the same compound, the figures for the MIC99 (in series [7]; in the series with Staphylococcus aureus [8]; in the series on Staphylococcus aureus [9]) were above 64 µg/mL, above 32 µg/mL and above 32 µg/mL, respectively. The amount in solution in [2] (solubility) came to 7280 µM (≈ 2990 µg/mL). The same compound registered a logP in series [6] of 1.19.

Usually MIC stands for the lowest concentration found to suppress growth. Take `CC(=O)NC[C@H]1CN(c2ccc(OC[C@@H]3CNC(=O)O3)c(F)c2)C(=O)O1`: in series [10], the MIC was determined as 8 µg/mL (≈ 21.8 µM). In addition, the concentration in solution in series [2] (solubility) was 2720 µM (≈ 999 µg/mL). In series [6], this compound displayed a logP of 0.01.

In the case of `CC(=O)NC[C@H]1CN(c2ccc(NC[C@H](O)COc3ccc(N4C[C@H](CNC(C)=O)OC4=O)cc3F)c(F)c2)C(=O)O1`, the MIC in series [10] turned out to be 32 µg/mL (≈ 54.1 µM). The amount in solution in series [2] (solubility) came to 81 µM (≈ 47.9 µg/mL). Besides, in series [6], the logP was 0.59.

Regarding `CC(=O)NC[C@H]1CN(c2ccc(OC[C@@H]3CN(c4ccc(N5C[C@H](CNC(C)=O)OC5=O)cc4F)C(=O)O3)c(F)c2)C(=O)O1`, in series [10], the MIC was found to be 16 µg/mL (≈ 25.9 µM). Further, the solubility in [2] was found to be 333 µM (≈ 206 µg/mL). The logP in [6] worked out at 0.43.

For the compound `O=C1O[C@H](COc2ccccc2F)CN1c1ccccc1`, the MIC in [10] was found to be 32 µg/mL (≈ 111 µM). The same compound displayed a solubility in series [2] of 441 µM (≈ 127 µg/mL). In series [6], the logP amounted to 3.19.

For the compound `COc1ccc(NC[C@@H](O)COc2ccc(N3C[C@H](CNC(C)=O)OC3=O)cc2F)cc1`, the MIC99 in the series on Escherichia coli is above 32 µg/mL; in the series with Staphylococcus aureus [1] it was 8 µg/mL (≈ 17.9 µM); in the series on Staphylococcus aureus [3] it was 16 µg/mL (≈ 35.8 µM); in the series with Staphylococcus aureus [4], 16 µg/mL (≈ 35.8 µM); with Staphylococcus aureus [5] it was 16 µg/mL (≈ 35.8 µM); in the series on Pseudomonas aeruginosa, above 32 µg/mL. Moreover, the MIC99 is 64 µg/mL (≈ 143 µM) in [7], 16 µg/mL (≈ 35.8 µM) with Staphylococcus aureus [8] and 8 µg/mL (≈ 17.9 µM) in the series on Staphylococcus aureus [9]. The concentration in solution in series [2] (solubility) was 1.3 µM (≈ 0.582 µg/mL). The compound further came in with a logP in series [6] of 1.15.
